Results taken from PMC5074515 (PLoS ONE, 2016).
Values after ≈ are worked out from the molar mass of the structure shown. Like-named read-outs stand apart in the source and are kept apart here.

What was measured:
tubulin = assay: Tubulin polymerization assay; type: biochemical, human; details: for IC50: mean ± standard deviation, at least three times per assay, NA = not active up to 100 μM; for effect on human tubulin: at 100 μM
Mtb H37Ra (ATCC 25177) = assay: In vitro screen versus Mtb H37Ra (Alamar blue microdilution broth assay, MIC99); type: cell-based, M. tuberculosis; details: Mycobacterium tuberculosis
Method: The initial screening set and selected other compounds were tested for their inhibitory activity against Mtb H37Ra (ATCC 25177) and MAC NJ211 strains. Screening was performed at 1.28 and 12.8 μg/mL in Middlebrook 7H9 broth supplemented with 0.2% glycerol and ADC enrichment using a colorimetric (Alamar blue) microdilution broth assay by reported methods.[15]

MAC NJ211 = assay: In vitro screen versus MAC NJ211 (Alamar blue microdilution broth assay, MIC99); type: cell-based; details: for MIC99: read-out: MAC NJ211 MIC99
Mtb FtsZ = Mtb FtsZ (Mycobacterium tuberculosis, UniProt P9WN95); assay: biochemical; type: biochemical
Mtb H37Rv [1] = assay: In vitro qHTS assay against Mtb H37Rv (IC90); type: cell-based, M. tuberculosis; details: Mycobacterium tuberculosis, H37RV; for IC90: concentration that inhibits bacterial growth by 90%, read-out: Mtb H37Rv IC90
Mtb H37Rv [2] = assay: TAACF Alamar blue assay against Mtb H37Rv (IC90); type: cell-based, M. tuberculosis; details: Mycobacterium tuberculosis
[3] = Acute toxicity mouse model; type: in vivo, mice; details: single dose of 300 mg/kg
in vitro = details: African green monkey
[4] = Rapid PK mouse model (bioavailability); details: mice, oral gavage, 300 mg/kg
[5] = Cytotoxicity (CC50) in Vero cells, TAACF; details: African green monkey
Vero cells = assay: Cytotoxicity (CC50) in Vero cells, TAACF; details: CC50 in Vero cells to IC90 against Mtb H37Rv
[6] = cited from earlier work
[7] = test system: M. tuberculosis 41 (Mtb 41) FtsZ reporter strain; type: cell-based
[8] = lowest drug concentration that completely inhibited growth, read-out: Mtb H37Ra MIC99
[9] = mean ± standard deviation, at least three times per assay, NA = not active up to 100 μM, read-out: Mtb FtsZ Polymerization IC50
[10] = lowest drug concentration that completely inhibited growth
[11] = same MIC99 given in μM, read-out: Mtb H37Ra MIC99 (concentration in μM in parentheses)

Mtb FtsZ, sequence (P9WN95 whole entry): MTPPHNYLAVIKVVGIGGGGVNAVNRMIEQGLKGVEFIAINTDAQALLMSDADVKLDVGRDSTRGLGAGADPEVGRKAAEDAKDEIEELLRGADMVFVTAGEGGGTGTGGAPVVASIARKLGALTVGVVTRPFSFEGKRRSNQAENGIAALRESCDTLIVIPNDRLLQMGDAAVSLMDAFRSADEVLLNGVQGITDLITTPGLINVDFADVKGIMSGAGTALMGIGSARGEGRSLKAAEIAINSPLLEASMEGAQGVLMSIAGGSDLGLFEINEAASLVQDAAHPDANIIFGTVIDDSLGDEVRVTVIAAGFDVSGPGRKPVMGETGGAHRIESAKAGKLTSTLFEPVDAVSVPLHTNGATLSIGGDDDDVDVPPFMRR

## C=CCOc1c(Br)cc(S(=O)(=O)c2cc(Br)c(O)c(Br)c2)cc1Br [Compound 7, Zantrin Z4]
tubulin
  IC50: 77 ± 3 µM
Mtb H37Ra (ATCC 25177); [8]
  MIC99: 64 µg/mL
MAC NJ211
  MIC99: > 64 µg/mL

## CSc1ccc(/C=C2\C(C)=C(CC(=O)NCCN(C)C)c3cc(F)ccc32)cc1 [Compound 61, (E)-N-(2-(Dimethylamino)ethyl)-2-(5-fluoro-2-methyl-1-(4-(methylthio)benzylidene)-1H-inden-3-yl)acetamide]
Mtb FtsZ; [9]
  IC50: 44.6 ± 6.3 µM
Mtb H37Ra (ATCC 25177); [8]
  MIC99: 16 µg/mL
MAC NJ211; [10]
  MIC99: 16 µg/mL (≈ 39 µM)
Mtb H37Rv [1]
  IC90: 7.7 ± 0.33 µM

## CC[n+]1c(/C=C/N(C)c2ccccc2)n(-c2ccccc2)c2ccc(-c3nc4ccccc4s3)cc21 [Compound 8, Zantrin Z2]
Mtb FtsZ; [9]
  IC50: 3.5 ± 0.3 µM
tubulin
  IC50: > 100 µM
Mtb H37Ra (ATCC 25177); [10]
  MIC: 1 µg/mL
MAC NJ211; [10]
  MIC: 1 µg/mL
Mtb H37Rv [2]; read-out: Mtb H37Rv IC90
  IC90: 1.56 µg/mL
Mtb H37Rv [2]; read-out: Mtb H37Rv IC90 (concentration in µM in parentheses)
  IC90: 3.2 µM
[3]
  ill effects to the mice: no ill effects
In vitro
  CC50: 1.7 µg/mL
[4]
  Bioavailability: no bioavailability and None
[5]
  CC50: 3.49 µM
Vero cells
  Selectivity Index (CC50/IC90): 1.09

## O=C(O)c1cc(O)c2c(c1)C(=O)c1cccc(O)c1C2=O [Compound 2, Rhein]
Mtb FtsZ
  IC50: 44.6 ± 6.3 µM
Mtb H37Ra (ATCC 25177); [8]
  MIC99: 32 µg/mL
Mtb H37Ra (ATCC 25177); [11]
  MIC99: 113 µM
MAC NJ211; [10]
  MIC99: > 128 µg/mL

## CSc1ccc(/C=C2/C(C)=C(CC(=O)NCCN(C)C)c3cc(F)ccc32)cc1 [Compound 18, (Z)-N-(2-(dimethylamino)ethyl)-2-(5-fluoro-2-methyl-1-(4-(methylthio)benzylidene)-1H-inden-3-yl)acetamide]
Mtb FtsZ; [9]
  IC50: 39.4 ± 4.9 µM
tubulin
  effect on human tubulin: no effect
tubulin; listed as SSA
  effect on human tubulin: no inhibition
Mtb H37Ra (ATCC 25177); [8]
  MIC99: 8 µg/mL
Mtb H37Ra (ATCC 25177); [11]
  MIC99: 19.5 µM
MAC NJ211; [10]
  MIC99: 16 µg/mL (≈ 39 µM)
Mtb H37Rv [1]
  IC90: 7.29 ± 0.23 µM
[6]; over 17 days
  tolerated dose in mice: up to 300 mg/kg

## C[n+]1cc2c3c(ccc2c2ccc4cc5c(cc4c21)OCO5)OCO3 [Compound 10, Sanguinarine Cl‾ • H2O]
Mtb FtsZ
  IC50: 23 ± 4 µM
tubulin
  IC50: 30 ± 7 µM
Mtb H37Ra (ATCC 25177); [8]
  MIC99: 64 µg/mL
Mtb H37Ra (ATCC 25177); [11]
  MIC99: 193 µM
MAC NJ211; [10]
  MIC99: > 64 µg/mL

## CSc1ccc(/C=C2/C(C)=C(CC(=O)NCCN3CCCCC3)c3cc(F)ccc32)cc1 [Compound 24, (Z)-2-(5-Fluoro-2-methyl-1-(4-(methylthio)benzylidene)-1H-inden-3-yl)-N-(2-(piperidin-1-yl)ethyl)acetamide]
Mtb FtsZ; [9]
  IC50: 26.5 ± 4.8 µM
tubulin
  IC50: > 100 µM
Mtb H37Rv [1]
  IC90: 1.41 ± 0.03 µM
other
  melting point: 130 to 133 °C

## CSc1ccc(/C=C2/C(C)=C(CC(=O)O)c3cc(F)ccc32)cc1 [Sulindac sulfide, reference compound]
[6]; over 20 days
  tolerated dose in mice: up to 50 mg/kg

## COc1cc(/C=C2\C=C(CC(=O)NCCN(C)C)c3cc(F)ccc32)cc(OC)c1OC [Compound 62, (E)-N-(2-(dimethylamino)ethyl)-2-(5-fluoro-1-(3,4,5-trimethoxybenzylidene)-1H-inden-3-yl)acetamide]
Mtb FtsZ; [9]
  IC50: 43.3 ± 9.8 µM
Mtb H37Ra (ATCC 25177); [8]
  MIC99: 32 µg/mL
Mtb H37Ra (ATCC 25177); [11]
  MIC99: 72.5 µM
MAC NJ211; [10]
  MIC99: > 64 µg/mL
Mtb H37Rv [1]; at 50 μM
  inhibition at 50 µM: 82%
Mtb H37Rv [1]
  IC90: > 100 µM
[7]
  FtsZ ring assembly in Mtb 41: inhibit FtsZ ring assembly
  growth of Mtb 41: significant growth inhibition

## Nc1nonc1C(=O)N/N=C/c1cc(Cl)cc(Cl)c1O [Compound 12, ChemBridge 5481893]
Mtb FtsZ; [9]
  IC50: 33.4 ± 3 µM
Mtb H37Ra (ATCC 25177); [8]
  MIC99: 64 µg/mL
Mtb H37Ra (ATCC 25177); [11]
  MIC99: 202 µM
MAC NJ211; [10]
  MIC99: > 64 µg/mL

## COc1cc(/C=C2\C=C(CC(=O)NCCN3CCCC3)c3cc(F)ccc32)cc(OC)c1OC [Compound 63, (E)-2-(5-fluoro-1-(3,4,5-trimethoxybenzylidene)-1H-inden-3-yl)-N-(2-(pyrrolidin-1-yl)ethyl)acetamide]
Mtb FtsZ; [9]
  IC50: 37.6 ± 5.7 µM
Mtb H37Ra (ATCC 25177); [8]
  MIC99: 32 µg/mL
Mtb H37Ra (ATCC 25177); [11]
  MIC99: 68.5 µM
MAC NJ211; [10]
  MIC99: > 64 µg/mL
Mtb H37Rv [1]
  IC90: 25.5 ± 0.33 µM
[7]
  FtsZ ring assembly in Mtb 41: inhibit FtsZ ring assembly
  growth of Mtb 41: significant growth inhibition
[7]; 75 μM, brightfield microscopy
  bacterial cell length of Mtb 41: clear increase in bacterial cell length
